Structures can show the parent of a compound that is named as a salt.
Each molecule was assayed against T1, MPO (purified from human polynuclear leukocytes) (Homo sapiens, UniProt P05164) (assay: MPO Amplex Red Activity Assay). Conditions: Table 1, 2 μM H2O2, pH 7.4.
T1 construct: purified from human polynuclear leukocytes; purchased Calbiochem/EMD Biosciences; host or cells: human polynuclear leukocytes (natural source)
Format: biochemical
Procedure, shortened: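 Potency is given as kinact/KI: kobs values from 600 s progress curves, minus the uninhibited rate, are fit against inhibitor concentration. Reactions use 2 μM H2O2, 30 μM Amplex Red, pH 7.4 phosphate buffer with NaCl, DTPA and 2% DMSO, started with […] human MPO. Readout is resorufin fluorescence, catalase background subtracted.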

T1 sequence (P05164 279-745 limits assumed): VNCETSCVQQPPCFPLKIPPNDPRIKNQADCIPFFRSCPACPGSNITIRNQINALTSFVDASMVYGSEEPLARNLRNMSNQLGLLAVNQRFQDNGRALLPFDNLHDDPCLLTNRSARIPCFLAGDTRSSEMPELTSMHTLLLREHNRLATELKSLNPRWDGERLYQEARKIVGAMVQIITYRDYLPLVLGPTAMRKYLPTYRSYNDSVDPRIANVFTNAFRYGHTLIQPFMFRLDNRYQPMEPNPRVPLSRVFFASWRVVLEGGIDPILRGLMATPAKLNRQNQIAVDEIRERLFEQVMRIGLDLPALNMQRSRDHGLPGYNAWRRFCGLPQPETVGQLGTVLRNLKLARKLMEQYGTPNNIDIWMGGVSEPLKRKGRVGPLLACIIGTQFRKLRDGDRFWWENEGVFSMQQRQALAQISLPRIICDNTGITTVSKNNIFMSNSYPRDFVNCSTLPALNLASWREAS
T1 sequence (P05164 165-273 limits assumed): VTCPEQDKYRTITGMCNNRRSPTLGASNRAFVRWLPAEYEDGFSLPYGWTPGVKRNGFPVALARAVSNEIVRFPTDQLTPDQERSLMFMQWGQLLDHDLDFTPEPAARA

SMILES	MPO kinact/Ki
COc1ccc(-c2cc(=O)[nH]c(=S)n2C[C@@H](O)CN)c(OC)c1 [Example 200, 1-[(2S)-3-amino-2-hydroxypropyl]-6-(2,4-dimethoxyphenyl)-2-thioxo-2,3-dihydropyrimidin-4(1H)-one trifluoroacetate]	4930 1/s per M
COc1cc(OC)c(-c2cc(=O)[nH]c(=S)n2CCN)cc1C [Example 81, 1-(2-aminoethyl)-6-(2,4-dimethoxy-5-methylphenyl)-2-thioxo-2,3-dihydropyrimidin-4(1H)-one hydrochloride]	24300 1/s per M
COCCn1c(-c2ccco2)cc(=O)[nH]c1=S [Example 277, 6-(2-furyl)-1-(2-methoxyethyl)-2-thioxo-2,3-dihydropyrimidin-4(1H)-one]	767 1/s per M
COc1ccccc1-c1cc(=O)[nH]c(=S)n1CC(N)=O [Example 17, 2-[6-(2-methoxyphenyl)-4-oxo-2-thioxo-3,4-dihydropyrimidin-1(2H)-yl]acetamide]	4460 1/s per M
COc1ccc(-c2cc(=O)[nH]c(=S)n2CC2CCN(C(=N)N)C2)c(OC)c1 (stereo not shown) [Example 259, 3-{[6-(2,4-dimethoxyphenyl)-4-oxo-2-thioxo-3,4-dihydropyrimidin-1(2H)-yl]methyl}pyrrolidine-1-carboximidamide trifluoroacetate]	4000 1/s per M
COc1ccc(Cl)cc1-c1cc(=O)[nH]c(=S)n1CCCNC(=O)CN [Example 149, N-{3-[6-(5-chloro-2-methoxyphenyl)-4-oxo-2-thioxo-3,4-dihydropyrimidin-1(2H)-yl]propyl} glycinamide hydrochloride]	9770 1/s per M
COc1ccc(-c2cc(=O)[nH]c(=S)n2Cc2ccn(C(N)=S)n2)c(OC)c1 [Example 261, 3-{[6-(2,4-dimethoxyphenyl)-4-oxo-2-thioxo-3,4-dihydropyrimidin-1(2H)-yl]methyl}-1H-pyrazole-1-carbothioamide]	2280 1/s per M
CSc1ccccc1-c1cc(=O)[nH]c(=S)n1CCO [Example 24, 1-(2-hydroxyethyl)-6-[2-(methylthio)phenyl]-2-thioxo-2,3-dihydropyrimidin-4(1H)-one]	7640 1/s per M
CCOc1ccccc1-c1cc(=O)[nH]c(=S)n1CCOC [Example 310, 6-(2-ethoxyphenyl)-1-(2-methoxyethyl)-2-thioxo-2,3-dihydropyrimidin-4(1H)-one]	3110 1/s per M
COc1cc(OC)cc(-c2cc(=O)[nH]c(=S)n2CCN)c1 [Example 48, 1-(2-aminoethyl)-6-(3,5-dimethoxyphenyl)-2-thioxo-2,3-dihydropyrimidin-4(1H)-one hydrochloride]	6570 1/s per M
COc1cc(-c2cc(=O)[nH]c(=S)n2CCO)c(OC)cc1Cl [Example 206, 6-(4-chloro-2,5-dimethoxyphenyl)-1-(2-hydroxyethyl)-2-thioxo-2,3-dihydropyrimidin-4(1H)-one]	7690 1/s per M
COc1ccc(OC)c(-c2cc(=O)[nH]c(=S)n2CCCN=C(N)N)c1 [Example 131, 2-{3-[6-(2,5-dimethoxyphenyl)-4-oxo-2-thioxo-3,4-dihydropyrimidin-1(2H)-yl]propyl} guanidine trifluoroacetate]	14500 1/s per M
NCCn1c(-c2ccc3c(c2)CCO3)cc(=O)[nH]c1=S [Example 14, 1-(2-aminoethyl)-6-(2,3-dihydro-1-benzofuran-5-yl)-2-thioxo-2,3-dihydropyrimidin-4(1H)-one hydrochloride]	5310 1/s per M
O=c1cc(-c2csc3ccccc23)n(CCO)c(=S)[nH]1 [Example 39, 6-(1-benzothien-3-yl)-1-(2-hydroxyethyl)-2-thioxo-2,3-dihydropyrimidin-4(1H)-one]	4520 1/s per M
COc1cc(Cl)ccc1-c1cc(=O)[nH]c(=S)n1CCN [Example 62, 1-(2-aminoethyl)-6-(4-chloro-2-methoxyphenyl)-2-thioxo-2,3-dihydropyrimidin-4(1H)-one hydrochloride]	6930 1/s per M
COc1ccc(F)cc1-c1cc(=O)[nH]c(=S)n1CCCN [Example 58, 1-(3-aminopropyl)-6-(5-fluoro-2-methoxyphenyl)-2-thioxo-2,3-dihydropyrimidin-4(1H)-one hydrochloride]	11700 1/s per M
C=CCn1c(-c2ccc(OC)cc2OC)cc(=O)[nH]c1=S [Example 266, 1-allyl-6-(2,4-dimethoxyphenyl)-2-thioxo-2,3-dihydropyrimidin-4(1H)-one]	604 1/s per M
COc1ccc(-c2cc(=O)[nH]c(=S)n2CCNC2=NCCN2)c(OC)c1 [Example 250, 1-[2-(4,5-dihydro-1H-imidazol-2-ylamino)ethyl]-6-(2,4-dimethoxyphenyl)-2-thioxo-2,3-dihydropyrimidin-4(1H)-one]	7510 1/s per M
COc1ccc(OC)c(-c2cc(=O)[nH]c(=S)n2CCO)c1 [Example 169, 6-(2,5-dimethoxyphenyl)-1-(2-hydroxyethyl)-2-thioxo-2,3-dihydropyrimidin-4(1H)-one]	17800 1/s per M
NCCCn1c(-c2cccc3ccoc23)cc(=O)[nH]c1=S [Example 34, 1-(3-aminopropyl)-6-(1-benzofuran-7-yl)-2-thioxo-2,3-dihydropyrimidin-4(1H)-one hydrochloride]	13100 1/s per M
COCCn1c(-c2ccc(Cl)cc2OC)cc(=O)[nH]c1=S [Example 335, 6-(4-chloro-2-methoxyphenyl) 1-(2-methoxyethyl)-2-thioxo-2,3-dihydropyrimidin-4(1H)-one]	9820 1/s per M
CCOc1ccc(-c2cc(=O)[nH]c(=S)n2CCOC)cn1 [Example 313, 6-(6-ethoxypyridin-3-yl)-1-(2-methoxyethyl)-2-thioxo-2,3-dihydropyrimidin-4(1H)-one]	973 1/s per M
COc1ccc(Cl)cc1-c1cc(=O)[nH]c(=S)n1CCCN=C(N)N [Example 133, 2-{3-[6-(5-chloro-2-methoxyphenyl)-4-oxo-2-thioxo-3,4-dihydropyrimidin-1(2H)-yl]propyl} guanidine]	15300 1/s per M
COCCn1c(-c2ccc(OC)c(F)c2)cc(=O)[nH]c1=S [Example 315, 6-(3-fluoro-4-methoxyphenyl)-1-(2-methoxyethyl)-2-thioxo-2,3-dihydropyrimidin-4(1H)-one]	1420 1/s per M
COCCn1c(-c2ccccc2OC)cc(=O)[nH]c1=S [Example 160, 1-(2-methoxyethyl)-6-(2-methoxyphenyl)-2-thioxo-2,3-dihydropyrimidin-4(1H)-one]	7540 1/s per M
COCCn1c(-c2ccccc2C)cc(=O)[nH]c1=S [Example 284, 1-(2-methoxyethyl)-6-(2-methylphenyl)-2-thioxo-2,3-dihydropyrimidin-4(1H)-one]	1470 1/s per M

Same assay, conditions: Table 1A, 2 μM H2O2, pH 7.4

SMILES	MPO kinact/Ki
CC(=O)OCCOc1ccc(F)cc1-c1cc(=O)[nH]c(=S)n1CC(N)=O [Example 421, 2-{2-[3-(2-amino-2-oxoethyl)-6-oxo-2-thioxo-1,2,3,6-tetrahydropyrimidin-4-yl]-4-fluorophenoxy}ethyl acetate]	4950 1/s per M
COc1ccc(Cl)cc1-c1cc(=O)[nH]c(=S)n1C[C@H](O)CO [Example 359, 6-(5-chloro-2-methoxyphenyl)-1-[(2S)-2,3-dihydroxypropyl]-2-thioxo-2,3-dihydropyrimidin-4(1H)-one]	2660 1/s per M
COc1ccc(OCCO)c(-c2cc(=O)[nH]c(=S)n2CCO)c1 [Example 379, 6-[2-(2-hydroxyethoxy)-5-methoxyphenyl]-1-(2-hydroxyethyl)-2-thioxo-2,3-dihydropyrimidin-4(1H)-one]	7370 1/s per M
NC(=O)Cn1c(-c2cc(F)ccc2OCCO)cc(=O)[nH]c1=S [Example 412, 2-{6-[5-fluoro-2-(2-hydroxyethoxy)phenyl]-4-oxo-2-thioxo-3,4-dihydropyrimidin-1(2H)-yl}acetamide]	3980 1/s per M
COc1ccc(-c2cc(=O)[nH]c(=S)n2CC(=O)NC(C)(C)CN)c(OC)c1 [Example 432, N-(1-amino-2-methylpropan-2-yl)-2-[6-(2,4-dimethoxyphenyl)-4-oxo-2-thioxo-3,4-dihydropyrimidin-1(2H)-yl]acetamide]	1410 1/s per M
NCCn1c(-c2cc3ccccc3s2)cc(=O)[nH]c1=S [Example 354, 1-(2-aminoethyl)-6-(1-benzothiophen-2-yl)-2-thioxo-2,3-dihydropyrimidin-4(1H)-one]	1830 1/s per M
COc1ccc(-c2cc(=O)[nH]c(=S)n2CCC(=O)NC(=N)N)c(OC)c1 [Example 446, N-carbamimidoyl-3-{6-(2,4-dimethoxyphenyl)-4-oxo-2-thioxo-3,4-dihydropyrimidin-1(2H)-yl]propanamide]	14200 1/s per M
COc1ccc(-c2cc(=O)[nH]c(=S)n2CCNC(=O)NC(=N)N)c(OC)c1 [Example 452, 1-carbamimidoyl-3-{2-[6-(2,4-dimethoxyphenyl)-4-oxo-2-thioxo-3,4-dihydropyrimidin-1(2H)-yl]ethyl}urea]	11600 1/s per M
COc1ccc(Cl)cc1-c1cc(=O)[nH]c(=S)n1CC(=O)NC(=N)N [Example 376, N-carbamidoyl-2-[6-(5-chloro-2-methoxyphenyl)-4-oxo-2-thioxo-3,4-dihydropyrimidin-1(2H)-yl]acetamide]	7870 1/s per M
CCNC(=N)NCCCn1c(-c2cc(Cl)ccc2OC)cc(=O)[nH]c1=S [Example 449, 1-{3-[6-(5-chloro-2-methoxyphenyl)-4-oxo-2-thioxo-3,4-dihydropyrimidin-1(2H)-yl]propyl}-2-ethylguanidine]	12000 1/s per M
COc1ccc(-c2cc(=O)[nH]c(=S)n2CCN)cc1OC [Example 360, 1-(2-aminoethyl)-6-(3,4-dimethoxyphenyl)-2-thioxo-2,3-dihydropyrimidin-4(1H)-one]	2280 1/s per M
